{"source": "patent US11219641B2", "about": "(«NORMOPHARM» LIMITED LIABILITY COMPANY [RU/RU], priority 2017, dated 2022)", "key": {"[1]": {"tested_on": "model of chronic alcohol intoxication", "settings": "treatment series", "protocol": "(§1) Materials and Methods. White Wistar male rats weighing 200-250 g (n=168) were used as a model object. The investigation was approved by ethical committee of Federal State Budgetary Educational Institution of Higher Professional Education “Ivanovo State Medical Academy”, the Ministry of Health of the Russian Federation” on Mar. 15, 2016; all procedures and experiments on rats were conducted in compliance with the international rules of treating animals used for scientific purposes. Animals were housed in equal rooms in cages of 7 rats in each at 19-21° C. Animals were given 40-50 g of a mixed fodder per animal every day.\n(§2) Creating a model of alcohol dependence.\n(§3) Preparation dosage and application. […] Each group contained 21 animals.\n(§4) Neurological testing. A general assessment of somatic and neurological status of animals was performed in all examined groups.\n(§5) In the open field test (OFT), vertical activity, horizontal activity, frequency of dipping into the holes (a hole exploratory test or “burrow reflex”), grooming frequency, and frequency of central zone entries were registered. In OFT, an animal was placed in one and the same square located near the wall. An exposure time for each animal in the model was 5 min. A round OF represented an arena 1 m in diameter and a wall of 0.4 m height with the floor divided into sectors. Three zones were marked in the open field: central, intermediate (6 sectors), peripheral (12 sectors). Two 60 W lamps were located at a height of 1.5 m from the chamber floor over the central field segments. Horizontal activity in the central and peripheral zone, vertical activity, grooming frequency, frequency of defecation, burrow reflexes were fixed during the test. The walls and floor were treated with a wet and dry cloth after each animal."}, "[2]": {"tested_on": "model of chronic alcohol intoxication", "settings": "after 7 days, treatment series", "protocol": "as §1, §2, §3, §4\nThe time spent in the open and closed arms and in the maze center, duration of grooming in the closed arm, a number of grooming episodes in the closed arm were registered during the elevated plus maze test (EPMT). The tested object was placed in the center of EPM with its nose towards the open arm. The time of testing the animals in the EPM amounted to 5 min. The apparatus used in the test consisted of two arms with an open area at the site of their crossing. One of the maze arms had closed compartments. The maze was installed at a height of 1 m from the floor. The time spent in the open and closed arm, grooming frequency, and rearing frequency were registered."}, "[3]": {"tested_on": "damaged neurocytes of the pyramidal layer of the forebrain cortex", "experiment": "Morphometric histological analysis of forebrain cortex neurocytes, prophylaxis series", "format": "in vivo, Wistar rats", "settings": "5 mg/kg, prophylactic application; placebo group 34.8%", "protocol": "as §2, §3\nHistological analysis of the nervous tissue. The brain after craniotomy was wholly removed and fixed in a 10% solution of neutral formalin, in 24 hours a zone of precentral gyrus of the forebrain was exposed by frontal incisions. Preparation of nerve tissue specimens was performed according to a standard procedure (dehydration in ethyl alcohol, xylene) with subsequent fabrication of paraffin blocks. Histological sections of 6 μm thick made on a sliding Microm microtome were stained with hematoxylene and eosin. Section duplicates were Nissl-stained with a reagent kit (Biovitrum Co.) and impregnated with silver. Histological sections were morphometrically examined using BioVision image analyzer (Austria) for counting damaged neurocytes of the pyramidal layer of the forebrain cortex in 10 various fields of vision with subsequent statistical processing of the results. Microphotographs were obtained with the help of the research Micros microscope and DCM 900 digital ocular camera."}, "[4]": {"tested_on": "model of chronic alcohol intoxication", "experiment": "Neurological testing (OFT, EPMT), prophylaxis series", "format": "in vivo, Wistar rats", "protocol": "as §2, §3, §4, §5\nThe time spent in the open and closed arms and in the maze center, duration of grooming in the closed arm, a number of grooming episodes in the closed arm were registered during the elevated plus maze test (EPMT). […]"}, "[5]": {"tested_on": "model of chronic alcohol intoxication", "settings": "prophylaxis series", "source_text": "as §2, §3"}, "[6]": {"settings": "Wistar rats, literature (Ostrenko et al.); cited from earlier work"}, "[7]": {"tested_on": "model of chronic alcohol intoxication", "experiment": "Observation of abstinence after alcohol withdrawal, treatment series", "settings": "after alcohol solution withdrawal, 5, 10, 30 mg/kg", "procedure": "Creating a model of alcohol dependence. The criterion for selecting rats, along with the absence of obvious abnormalities in the state and behavior, was an initial preference for 6% ethyl alcohol over tap water. To determine this preference, a preliminary experiment was conducted during 3 days in the individual cages with a free access to both liquids. Once a selection has been done, 6% ethyl alcohol was offered as the only source of liquid, a week later the concentration of alcohol was increased to 15%. After 2 weeks, alcohol was replaced by tap water.\nPreparation dosage and application. The experiment was carried out in two series «prophylaxis» and «treatment» with four groups in each series: (1) dose 30 mg/kg (experimental group 1), (2) dose 10 mg/kg (experimental group 2), (3) dose 5 mg/kg (experimental group 3), (4) placebo group. In the experiments of “prophylaxis” series, the preparation was introduced concurrently with model creation, while in the experiments of “treatment” series it was done after model creation. Each group contained 21 animals. Said preparation was introduced intragastrically via a probe once a day in volume of 0.5 ml per each animal for 14 days.\n“Treatment” represents a more rigid model of alcohol intoxication for evaluation of the preparation efficacy."}, "[8]": {"settings": "5 mg/kg intragastrically once a day, after 7 days"}, "[9]": {"settings": "10 mg/kg intragastrically once a day, after 7 days"}, "[10]": {"settings": "30 mg/kg intragastrically once a day, after 7 days"}, "[11]": {"settings": "5 mg/kg intragastrically once a day"}, "[12]": {"settings": "10 mg/kg intragastrically once a day"}, "[13]": {"settings": "30 mg/kg intragastrically once a day"}}, "note": "Where two headings read alike, the source gives them in different places.", "data": [{"smiles": "O=C1O[C@H]([C@@H](O)CO)C([O-])=C1O.[Li+]", "note": "[lithium ascorbate]", "values": [{"measurement": "Frequency of dipping into the hole (OFT)", "setting": "[1]; [8]", "result": 1.1, "unit": "times"}, {"measurement": "Grooming frequency (OFT)", "setting": "[1]; [8]", "result": 8.9, "unit": "times"}, {"measurement": "Horizontal locomotor activity central (OFT)", "setting": "[1]; [8]", "result": 1.0}, {"measurement": "Horizontal locomotor activity peripheral (OFT)", "setting": "[1]; [8]", "result": 19.3}, {"measurement": "Number of boluses (OFT)", "setting": "[1]; [8]", "result": 15.1, "unit": "pcs"}, {"measurement": "Frequency of dipping into the hole (OFT)", "setting": "[1]; [9]", "result": 1.9, "unit": "times"}, {"measurement": "Horizontal locomotor activity central (OFT)", "setting": "[1]; [9]", "result": 1.8}, {"measurement": "Number of boluses (OFT)", "setting": "[1]; [9]", "result": 12.6, "unit": "pcs"}, {"measurement": "Vertical locomotor activity (OFT)", "setting": "[1]; [9]", "result": 1.4}, {"measurement": "Frequency of dipping into the hole (OFT)", "setting": "[1]; [10]", "result": 2.0, "unit": "times"}, {"measurement": "Horizontal locomotor activity central (OFT)", "setting": "[1]; [10]", "result": 1.9}, {"measurement": "Number of boluses (OFT)", "setting": "[1]; [10]", "result": 12.2, "unit": "pcs"}, {"measurement": "Vertical locomotor activity (OFT)", "setting": "[1]; [10]", "result": 1.6}, {"measurement": "dose at which adequate efficacy was noted, treatment purposes", "setting": "[1]; doses 5, 10, 30 mg/kg compared", "result": 5, "unit": "mg/kg"}, {"measurement": "Grooming frequency (EPMT)", "setting": "[2]; [11]", "result": 9.1, "unit": "times"}, {"measurement": "Time spent in the closed arm (EPMT)", "setting": "[2]; [11]", "result": 270.67, "unit": "s"}, {"measurement": "Time spent in the open arm (EPMT)", "setting": "[2]; [11]", "result": 27.73, "unit": "s"}, {"measurement": "Grooming frequency (EPMT)", "setting": "[2]; [12]", "result": 6.3, "unit": "times"}, {"measurement": "Time spent in the closed arm (EPMT)", "setting": "[2]; [12]", "result": 265.19, "unit": "s"}, {"measurement": "Time spent in the open arm (EPMT)", "setting": "[2]; [12]", "result": 34.81, "unit": "s"}, {"measurement": "Vertical activity (EPMT)", "setting": "[2]; [12]", "result": 1.5}, {"measurement": "Grooming frequency (EPMT)", "setting": "[2]; [13]", "result": 5.8, "unit": "times"}, {"measurement": "Time spent in the closed arm (EPMT)", "setting": "[2]; [13]", "result": 259.01, "unit": "s"}, {"measurement": "Time spent in the open arm (EPMT)", "setting": "[2]; [13]", "result": 38.26, "unit": "s"}, {"measurement": "amount of the damaged cortex cells", "setting": "[3]", "result": 18.5, "unit": "%"}, {"measurement": "dose from which effective prophylaxis of neurological disorders was noted", "setting": "[4]; introduced with alcohol for 2 weeks", "result": "≥ 5", "unit": "mg/kg"}, {"measurement": "vertical activity in neurological tests", "setting": "[4]; various dosages during 2 weeks", "result": "increased vertical activity"}, {"measurement": "catecholamine content in the animal blood", "setting": "[5]; applied together with alcohol", "result": "inhibited the increase of catecholamine content"}, {"measurement": "MDA levels in blood serum", "setting": "[5]", "result": "decreased MDA levels"}, {"measurement": "toxicity class", "setting": "[6]", "result": "Class 5"}, {"measurement": "cramps during abstinence", "setting": "[7]", "result": "No cramps were noted"}, {"measurement": "number of aggressive incidents during abstinence", "setting": "[7]", "result": "reduced the number of aggressive incidents"}]}]}
